Test results: article PMC5633905, “Conformational dynamics of the essential sensor histidine kinase WalK” (Acta Crystallographica. Section D, Structural Biology, 2017)

Legend:
Experiment in all cases: ITC
smVicK (196-450) = molecular target: T1, smVicK (196-450) (Streptococcus mutans, UniProt Q8DT64); format: binding
T1 construct: gene covS; DHp + CA domains, residues 196-450, pET-His vector, expressed in E. coli and purified as lpWalK

lpWalK (370-624) = molecular target: T2, lpWalK (370-624); format: binding, Lactiplantibacillus plantarum; conditions: 20 mM Tris-HCl pH 8.0, 5 mM MgCl2, 25 °C, fixed 1:1 model
T2 construct: gene walK; catalytic region DHp + CA domains, residues 370-624, N-terminal His tag, pET-His, E. coli BL21(DE3); DHp homodimer

smVicK CA (271-450) = molecular target: T3, smVicK CA (271-450) (Streptococcus mutans, UniProt Q8DT64); format: binding
T3 construct: gene covS
T3 sequence (Q8DT64 entry or part of it): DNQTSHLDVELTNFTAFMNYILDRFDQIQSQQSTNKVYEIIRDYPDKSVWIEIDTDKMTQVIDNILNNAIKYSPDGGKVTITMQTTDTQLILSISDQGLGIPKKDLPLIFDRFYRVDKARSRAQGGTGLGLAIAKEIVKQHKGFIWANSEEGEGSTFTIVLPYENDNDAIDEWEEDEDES

T1 sequence (Q8DT64 entry or part of it): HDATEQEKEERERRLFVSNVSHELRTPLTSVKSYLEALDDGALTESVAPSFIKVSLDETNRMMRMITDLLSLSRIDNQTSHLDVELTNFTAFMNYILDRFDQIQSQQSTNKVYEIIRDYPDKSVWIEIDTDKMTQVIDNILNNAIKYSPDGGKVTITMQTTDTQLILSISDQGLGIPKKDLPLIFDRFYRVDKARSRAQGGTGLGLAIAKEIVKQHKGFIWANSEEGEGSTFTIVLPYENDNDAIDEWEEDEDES

Nc1ncnc2c1ncn2[C@@H]1O[C@H](COP(=O)(O)OP(=O)(O)O)[C@@H](O)[C@H]1O [ADP]
Kd (smVicK (196-450)): 701 ± 165 µM | Kd (lpWalK (370-624)): 1200 ± 17 µM | Kd (smVicK CA (271-450)): 474 ± 97.5 µM

Nc1ncnc2c1ncn2[C@@H]1O[C@H](COP(=O)(O)OP(=O)(O)NP(=O)(O)O)[C@@H](O)[C@H]1O [AMPPNP]
Kd (smVicK (196-450)): 538 ± 32 µM | Kd (lpWalK (370-624); gamma-phosphate not defined in the crystal): 450 ± 6.36 µM | Kd (smVicK CA (271-450)): 292 ± 15.2 µM

Nc1ncnc2c1ncn2[C@@H]1O[C@H](COP(=O)(O)O)[C@@H](O)[C@H]1O [AMP]
Kd (lpWalK (370-624)): 1280 ± 95.5 µM
